One block for each compound: values may come before it.
Experiment: Gadolinium(III) stability constants (log K value) for the compound polyamino carboxylate derivative

SMILES: O=C(O)CN(CCN(CC(=O)O)CC(=O)O)CCN(CC(=O)O)C(COCc1ccccc1)C(=O)O (stereo not given)
- log K Gd(III) stability constant: 22.6

SMILES: CCCOC(=O)CN(CCN(CCN(CC(=O)O)CC(=O)O)CC(=O)O)CC(=O)O
- log K Gd(III) stability constant: 18.9

SMILES: CCCNC(=O)CN(CCN(CCN(CC(=O)O)CC(=O)O)CC(=O)O)CC(=O)O
- log K Gd(III) stability constant: 19.7

More lines, now with the values ahead:

- log K Gd(III) stability constant: 17.8
SMILES: CCN(CCN(CC(=O)O)CC(=O)O)CCN(CC(=O)O)CC(=O)O

- log K Gd(III) stability constant: 22.4
SMILES: O=C(O)CN(CCN(CC(=O)O)CC(=O)O)CCN(CC(=O)O)CC(=O)O [PENTETIC ACID]

— ChEMBL document CHEMBL1129260, “Evaluation of the stability and animal biodistribution of gadolinium (III) benzylamine-derivatized diethylenetriaminepentaacetic acid” (J Med Chem, 1996)
